In US10294202B2, “Pyrrolidinones as herbicides” (FMC Corporation, priority 2013, dated 2019):

Legend:
oilseed rape = assay: Test C pre-/postemergence herbicide test; type: in vivo, Brassica napus
Summary of the method: (§1)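 Test compounds, formulated in a surfactant-containing non-phytotoxic solvent blend, are applied to seeded loam/sand soil (preemergence) and to young plants at the 1- to 4-leaf stage in peat-based medium (postemergence). Plants stay 13 to 15 days under greenhouse conditions, then are scored visually relative to controls, 0 = no effect, 100 = complete control.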

ducksalad = assay: Test B flooded paddy test; type: in vivo, Heteranthera limosa; conditions: Flood, scale of 0 to 100 where 0 is no effect and 100 is complete control
Summary of the method: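 First, plants reach the 2-leaf stage; next, pots are flooded to 3 cm and compound is delivered into the water; finally, after 13 to 15 greenhouse days at constant depth, injury is graded visually from 0 to 100 against controls.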

barnyardgrass = assay: Test A pre-/postemergence herbicide test; type: in vivo, Echinochloa crus-galli
Summary of the method: (§2)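 Planted in loam–sand blend; treated the same day preemergence by directed soil spray, while separately grown plants at one- to two-leaf stage got postemergence spray. Compared visually with untreated controls after approximately 10 days; 100 means complete control.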

ryegrass, Italian = assay: Test C pre-/postemergence herbicide test; type: in vivo, Lolium multiflorum
Summary of the method: as §1

nutsedge, yellow = assay: Test C pre-/postemergence herbicide test; type: in vivo, Cyperus esculentus
Summary of the method: as §1

blackgrass = assay: Test C pre-/postemergence herbicide test; type: in vivo, Alopecurus myosuroides
Summary of the method: as §1

wheat = assay: Test A pre-/postemergence herbicide test; type: in vivo, Triticum aestivum; conditions: Postemergence
Summary of the method: as §2

galium = assay: Test C pre-/postemergence herbicide test; type: in vivo, Galium aparine
Summary of the method: as §1

pigweed = assay: Test A pre-/postemergence herbicide test; type: in vivo, Amaranthus retroflexus
Summary of the method: as §2

wheat (winter wheat) = assay: Test C pre-/postemergence herbicide test; type: in vivo, Triticum aestivum
Summary of the method: as §1

[1] = Preemergence, 31 g ai/ha, scale 0 to 100, 0 is no effect and 100 is complete control
[2] = Preemergence, 62 g ai/ha, scale 0 to 100 (0 no effect, 100 complete control)
[3] = Preemergence, 125 g ai/ha, scale 0 to 100
[4] = Postemergence, 125 g ai/ha, visual rating on 0 to 100 scale (0 no effect, 100 complete control), approx. 10 days
[5] = Postemergence, 500 g ai/ha, 0 to 100 scale (0 no effect, 100 complete control)
[6] = Preemergence, 125 g ai/ha, 0 to 100 scale where 0 is no effect and 100 is complete control
[7] = Preemergence, 500 g ai/ha, visual rating on 0 to 100 scale (0 no effect, 100 complete control)
[8] = 125 g ai/ha, visual rating on 0 to 100 scale (0 no effect, 100 complete control), approx. 10 days
[9] = 500 g ai/ha, 0 to 100 scale (0 no effect, 100 complete control)
[10] = Postemergence, 31 g ai/ha, scale 0 to 100 (0 no effect, 100 complete control)
[11] = Postemergence, 62 g ai/ha, scale 0 (no effect) to 100 (complete control)
[12] = Postemergence, 125 g ai/ha, scale 0 to 100 (0 no effect, 100 complete control)
[13] = Postemergence, 250 g ai/ha, scale 0 to 100 (0 no effect, 100 complete control)
[14] = Preemergence, 31 g ai/ha, scale 0 to 100

SMILES: CC(C)c1cccc(C2CNC(=O)C2C(=O)Nc2cccc(F)c2F)c1 (stereo not shown) [Compound 319]
- Oilseed Rape plant response rating (oilseed rape; [1]): 0
- Oilseed Rape plant response rating (oilseed rape; [2]): 5
- Plant response rating, Oilseed Rape (oilseed rape; [3]): 60
- Plant response rating (scale of 0 to 100), Oilseed Rape (oilseed rape; Preemergence, 250 g ai/ha): 65
- Plant response rating, Ducksalad (ducksalad; 500 g ai/ha): 100
- Plant response rating, Barnyardgrass (barnyardgrass; [4]): 90
- Plant response rating, Barnyardgrass (barnyardgrass; [5]): 90
- Plant response rating, Barnyardgrass (barnyardgrass; [6]): 90
- Barnyardgrass plant response rating (barnyardgrass; [7]): 90
- Ryegrass, Italian plant response rating (ryegrass, Italian; [2]): 10
- Plant response rating, Ryegrass, Italian (ryegrass, Italian; [3]): 20
- Nutsedge, Yellow plant response rating (nutsedge, yellow; [1]): 0
- Nutsedge, Yellow plant response rating (nutsedge, yellow; [2]): 0
- Plant response rating, Nutsedge, Yellow (nutsedge, yellow; [3]): 0
- Plant response rating (scale of 0 to 100), Nutsedge, Yellow (nutsedge, yellow; Preemergence, 250 g ai/ha): 30
- Blackgrass plant response rating (blackgrass; [1]): 40
- Blackgrass plant response rating (blackgrass; [2]): 0
- Plant response rating, Blackgrass (blackgrass; [3]): 30
- Plant response rating (scale of 0 to 100), Blackgrass (blackgrass; Preemergence, 250 g ai/ha): 80
- Plant response rating, Wheat (wheat; [8]): 20
- Plant response rating, Wheat (wheat; [9]): 50
- Galium plant response rating (galium; [1]): 95
- Galium plant response rating (galium; [2]): 70
- Plant response rating, Galium (galium; [3]): 80
- Plant response rating (scale of 0 to 100), Galium (galium; Preemergence, 250 g ai/ha): 85
- Plant response rating, Pigweed (pigweed; [4]): 0
- Plant response rating, Pigweed (pigweed; [5]): 20
- Plant response rating, Pigweed (pigweed; [6]): 0
- Pigweed plant response rating (pigweed; [7]): 20
- Wheat plant response rating (wheat (winter wheat); [2]): 0
- Plant response rating, Wheat (wheat (winter wheat); [3]): 10

SMILES: O=C1NCC(c2cccc(OC(F)F)c2)C1C(=O)Nc1ccccc1F (stereo not shown) [Compound 323]
- Plant response rating, Oilseed Rape (oilseed rape; [10]): 0
- Plant response rating, Oilseed Rape (oilseed rape; [11]): 0
- Plant response rating, Oilseed Rape (oilseed rape; [12]): 0
- Plant response rating, Oilseed Rape (oilseed rape; [13]): 0
- Oilseed Rape plant response rating (oilseed rape; [1]): 0
- Oilseed Rape plant response rating (oilseed rape; [2]): 10
- Plant response rating, Oilseed Rape (oilseed rape; [3]): 70
- Plant response rating (scale of 0 to 100), Oilseed Rape (oilseed rape; Preemergence, 250 g ai/ha): 85
- Plant response rating, Ducksalad (ducksalad; 500 g ai/ha): 100
- Plant response rating, Barnyardgrass (barnyardgrass; [4]): 90
- Plant response rating, Barnyardgrass (barnyardgrass; [5]): 90
- Plant response rating, Barnyardgrass (barnyardgrass; [6]): 90
- Barnyardgrass plant response rating (barnyardgrass; [7]): 90
- Plant response rating, Ryegrass, Italian (ryegrass, Italian; [10]): 0
- Plant response rating, Ryegrass, Italian (ryegrass, Italian; [11]): 0
- Plant response rating, Ryegrass, Italian (ryegrass, Italian; [12]): 0
- Plant response rating, Ryegrass, Italian (ryegrass, Italian; [13]): 5
- Ryegrass, Italian plant response rating (ryegrass, Italian; [2]): 10
- Plant response rating, Ryegrass, Italian (ryegrass, Italian; [3]): 0
- Plant response rating, Nutsedge, Yellow (nutsedge, yellow; [10]): 0
- Plant response rating, Nutsedge, Yellow (nutsedge, yellow; [11]): 0
- Plant response rating, Nutsedge, Yellow (nutsedge, yellow; [12]): 0
- Plant response rating, Nutsedge, Yellow (nutsedge, yellow; [13]): 0
- Nutsedge, Yellow plant response rating (nutsedge, yellow; [1]): 20
- Nutsedge, Yellow plant response rating (nutsedge, yellow; [2]): 25
- Plant response rating, Nutsedge, Yellow (nutsedge, yellow; [3]): 25
- Plant response rating (scale of 0 to 100), Nutsedge, Yellow (nutsedge, yellow; Preemergence, 250 g ai/ha): 75
- Plant response rating, Blackgrass (blackgrass; [10]): 0
- Plant response rating, Blackgrass (blackgrass; [11]): 0
- Plant response rating, Blackgrass (blackgrass; [12]): 0
- Plant response rating, Blackgrass (blackgrass; [13]): 15
- Blackgrass plant response rating (blackgrass; [1]): 0
- Blackgrass plant response rating (blackgrass; [2]): 0
- Plant response rating, Blackgrass (blackgrass; [3]): 45
- Plant response rating (scale of 0 to 100), Blackgrass (blackgrass; Preemergence, 250 g ai/ha): 85
- Plant response rating, Wheat (wheat; [8]): 40
- Plant response rating, Wheat (wheat; [9]): 80
- Galium plant response rating (galium; [1]): 0
- Galium plant response rating (galium; [2]): 0
- Plant response rating, Galium (galium; [3]): 85
- Plant response rating (scale of 0 to 100), Galium (galium; Preemergence, 250 g ai/ha): 85
- Plant response rating, Pigweed (pigweed; [4]): 20
- Plant response rating, Pigweed (pigweed; [5]): 30
- Plant response rating, Pigweed (pigweed; [6]): 20
- Pigweed plant response rating (pigweed; [7]): 30
- Plant response rating, Wheat (wheat (winter wheat); [10]): 0
- Plant response rating, Wheat (wheat (winter wheat); [11]): 0
- Plant response rating, Wheat (wheat (winter wheat); [12]): 0
- Plant response rating, Wheat (wheat (winter wheat); [13]): 0
- Wheat plant response rating (wheat (winter wheat); [2]): 30
- Plant response rating, Wheat (wheat (winter wheat); [3]): 40

SMILES: O=C1NCC(c2cccc(C(F)(F)F)c2)C1C(=O)Nc1ccc(F)c(F)c1F (stereo not shown) [Compound 345]
- Oilseed Rape plant response rating (oilseed rape; [1]): 50
- Oilseed Rape plant response rating (oilseed rape; [2]): 55
- Plant response rating, Oilseed Rape (oilseed rape; [3]): 85
- Plant response rating (scale of 0 to 100), Oilseed Rape (oilseed rape; Preemergence, 250 g ai/ha): 85
- Plant response rating, Ducksalad (ducksalad; 1000 g ai/ha): 30
- Plant response rating, Barnyardgrass (barnyardgrass; [4]): 70
- Plant response rating, Barnyardgrass (barnyardgrass; [5]): 90
- Plant response rating, Barnyardgrass (barnyardgrass; [6]): 80
- Barnyardgrass plant response rating (barnyardgrass; [7]): 90
- Ryegrass, Italian plant response rating (ryegrass, Italian; [2]): 45
- Plant response rating, Ryegrass, Italian (ryegrass, Italian; [3]): 10
- Nutsedge, Yellow plant response rating (nutsedge, yellow; [1]): 0
- Nutsedge, Yellow plant response rating (nutsedge, yellow; [2]): 0
- Plant response rating, Nutsedge, Yellow (nutsedge, yellow; [3]): 0
- Plant response rating (scale of 0 to 100), Nutsedge, Yellow (nutsedge, yellow; Preemergence, 250 g ai/ha): 0
- Blackgrass plant response rating (blackgrass; [1]): 50
- Blackgrass plant response rating (blackgrass; [2]): 50
- Plant response rating, Blackgrass (blackgrass; [3]): 90
- Plant response rating (scale of 0 to 100), Blackgrass (blackgrass; Preemergence, 250 g ai/ha): 90
- Plant response rating, Wheat (wheat; [8]): 50
- Galium plant response rating (galium; [1]): 20
- Galium plant response rating (galium; [2]): 90
- Plant response rating, Galium (galium; [3]): 90
- Plant response rating (scale of 0 to 100), Galium (galium; Preemergence, 250 g ai/ha): 85
- Plant response rating, Pigweed (pigweed; [4]): 20
- Plant response rating, Pigweed (pigweed; [6]): 0
- Pigweed plant response rating (pigweed; [7]): 70
- Wheat plant response rating (wheat (winter wheat); [2]): 10
- Plant response rating, Wheat (wheat (winter wheat); [3]): 70

SMILES: O=C1NCC(c2ccc(F)c(F)c2)C1C(=O)Nc1ccc(F)c(F)c1F (stereo not shown) [Compound 346]
- Plant response rating, Oilseed Rape (oilseed rape; [10]): 0
- Plant response rating, Oilseed Rape (oilseed rape; [11]): 0
- Plant response rating, Oilseed Rape (oilseed rape; [12]): 0
- Plant response rating, Oilseed Rape (oilseed rape; [13]): 0
- Oilseed Rape plant response rating (oilseed rape; [2]): 0
- Plant response rating, Oilseed Rape (oilseed rape; [3]): 50
- Plant response rating (scale of 0 to 100), Oilseed Rape (oilseed rape; Preemergence, 250 g ai/ha): 60
- Plant response rating, Oilseed Rape (oilseed rape; [14]): 0
- Plant response rating, Ducksalad (ducksalad; 1000 g ai/ha): 100
- Plant response rating, Barnyardgrass (barnyardgrass; [4]): 80
- Plant response rating, Barnyardgrass (barnyardgrass; [5]): 90
- Plant response rating, Barnyardgrass (barnyardgrass; [6]): 80
- Barnyardgrass plant response rating (barnyardgrass; [7]): 90
- Plant response rating, Ryegrass, Italian (ryegrass, Italian; [10]): 0
- Plant response rating, Ryegrass, Italian (ryegrass, Italian; [11]): 0
- Plant response rating, Ryegrass, Italian (ryegrass, Italian; [12]): 0
- Plant response rating, Ryegrass, Italian (ryegrass, Italian; [13]): 0
- Ryegrass, Italian plant response rating (ryegrass, Italian; [2]): 10
- Plant response rating, Ryegrass, Italian (ryegrass, Italian; [3]): 5
- Plant response rating, Ryegrass, Italian (ryegrass, Italian; [14]): 0
- Plant response rating, Nutsedge, Yellow (nutsedge, yellow; [10]): 0
- Plant response rating, Nutsedge, Yellow (nutsedge, yellow; [11]): 0
- Plant response rating, Nutsedge, Yellow (nutsedge, yellow; [12]): 0
- Plant response rating, Nutsedge, Yellow (nutsedge, yellow; [13]): 5
- Nutsedge, Yellow plant response rating (nutsedge, yellow; [2]): 0
- Plant response rating, Nutsedge, Yellow (nutsedge, yellow; [3]): 0
- Plant response rating (scale of 0 to 100), Nutsedge, Yellow (nutsedge, yellow; Preemergence, 250 g ai/ha): 0
- Plant response rating, Nutsedge, Yellow (nutsedge, yellow; [14]): 0
- Plant response rating, Blackgrass (blackgrass; [10]): 0
- Plant response rating, Blackgrass (blackgrass; [11]): 0
- Plant response rating, Blackgrass (blackgrass; [12]): 0
- Plant response rating, Blackgrass (blackgrass; [13]): 5
- Blackgrass plant response rating (blackgrass; [2]): 60
- Plant response rating, Blackgrass (blackgrass; [3]): 75
- Plant response rating (scale of 0 to 100), Blackgrass (blackgrass; Preemergence, 250 g ai/ha): 85
- Plant response rating, Blackgrass (blackgrass; [14]): 20
- Plant response rating, Wheat (wheat; [8]): 0
- Plant response rating, Galium (galium; [10]): 30
- Plant response rating, Galium (galium; [11]): 25
- Plant response rating, Galium (galium; [12]): 40
- Plant response rating, Galium (galium; [13]): 70
- Galium plant response rating (galium; [2]): 20
- Plant response rating, Galium (galium; [3]): 90
- Plant response rating (scale of 0 to 100), Galium (galium; Preemergence, 250 g ai/ha): 90
- Plant response rating, Galium (galium; [14]): 10
- Plant response rating, Pigweed (pigweed; [4]): 0
- Plant response rating, Pigweed (pigweed; [6]): 20
- Pigweed plant response rating (pigweed; [7]): 30
- Plant response rating, Wheat (wheat (winter wheat); [10]): 0
- Plant response rating, Wheat (wheat (winter wheat); [11]): 0
- Plant response rating, Wheat (wheat (winter wheat); [12]): 0
- Plant response rating, Wheat (wheat (winter wheat); [13]): 0
- Wheat plant response rating (wheat (winter wheat); [2]): 0
- Plant response rating, Wheat (wheat (winter wheat); [3]): 0
- Plant response rating, Wheat (wheat (winter wheat); [14]): 0
